From patent US12336981B2, “Compounds and compositions for the inhibition of NAMPT” (Valo Health, Inc., priority 2010, dated 2025)
Read-outs that look alike come from different tables or passages of the source.

Legend:
A2780 cells = test: In-vitro cell proliferation assay (SRB), A2780 cells; assay type: cell-based; settings: Homo sapiens, A2780, 72 h, A2780 cells, 72 hours, read-out: A2780 IC50
Description: In-Vitro Cell Proliferation Assay
After overnight incubation at 37° C. and 5% CO2, the compound titrations were performed in a separate dilution plate by serially diluting the compounds in DMSO to make a 1000× stock. The compounds were then further diluted to 10× final concentration in culture media, whereupon 20 μL of each dilution was added to the plated cells with controls (e.g. DMSO and blank) to make a final volume of 200 μL. The final DMSO concentration in each well was 0.1%. The plates were then incubated for 72 hours at 37° C. in a 5% CO2 incubator. The number of viable cells was then assessed using sulforhodamine B (SRB) assay. Cells were fixed at 4° C. for 1 hour with the addition of 50 μL 30% trichloroacetic acid (TCA) to make a final concentration of 6% TCA. The plates were washed four times with H2O and allowed to dry for at least 1 hour, whereupon 100 μL of a 4% SRB in 1% acetic acid solution was added to each well and incubated at room temperature for at least 30 minutes. The plates were then washed three times with 1% acetic acid, dried, and treated with 100 μL of 10 mM Tris-Base solution. The plates were then read in a microplate reader at an absorbance of 570 nm. Background was generated on a separate plate with media only.
Method for Determining % Inhibition
First, the signals from the background plate are averaged, then the background was subtracted from the test plates.
wherein X denotes the compound concentration 1, Y denotes the compound concentration 2, XX denotes the % inhibition at compound concentration 1 (X), and YY denotes the % inhibition at compound concentration 2 (Y).

NAMPT = biological target: T1, NAMPT (Homo sapiens, UniProt P43490); test: Biochemical inhibition assay: NAMPT enzymatic reaction, NMN quantified by mass spectrometry; settings: read-out: Biochem IC50
T1 construct: His tag; host or cells: E. coli
T1 sequence (P43490 whole entry): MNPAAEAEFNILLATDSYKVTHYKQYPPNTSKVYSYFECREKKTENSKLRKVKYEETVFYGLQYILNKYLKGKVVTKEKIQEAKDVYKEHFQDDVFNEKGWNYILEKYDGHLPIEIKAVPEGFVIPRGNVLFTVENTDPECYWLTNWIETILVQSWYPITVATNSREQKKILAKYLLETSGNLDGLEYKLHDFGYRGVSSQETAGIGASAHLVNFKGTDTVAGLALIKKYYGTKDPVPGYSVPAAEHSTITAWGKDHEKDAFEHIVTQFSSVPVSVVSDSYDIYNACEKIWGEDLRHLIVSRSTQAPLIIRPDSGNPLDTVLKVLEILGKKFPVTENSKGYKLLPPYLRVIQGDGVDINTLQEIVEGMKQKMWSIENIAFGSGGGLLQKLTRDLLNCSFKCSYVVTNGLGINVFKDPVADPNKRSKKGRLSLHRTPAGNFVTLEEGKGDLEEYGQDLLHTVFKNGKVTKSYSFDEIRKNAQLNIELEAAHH
Description: Biochemical Inhibition Assay
NAMPT Protein Purification
Recombinant His-tagged NAMPT was produced in E. coli cells, purified over a Ni column, and further purified over a size-exclusion column by XTAL Biostructures.
The NAMPT Enzymatic Reaction
The NAMPT enzymatic reactions were carried out in Buffer A (50 mM Hepes pH 7.5, 50 mM NaCl, 5 mM MgCl2, and 1 mM THP) in 96-well V-bottom plates. The compound titrations were performed in a separate dilution plate by serially diluting the compounds in DMSO to make a 100× stock. […] The compound and enzyme mix was incubated for 15 minutes at room temperature, then 10 μL of 10× substrate and co-factors in Buffer A were added to the test well to make a final concentration of 1 μM NAM, 100 μM 5-Phospho-D-ribose 1-diphosphate (PRPP), and 2.5 mM Adenosine 5′-triphosphate (ATP). The reaction was allowed to proceed for 30 minutes at room temperature, then was quenched with the addition of 11 μL of a solution of formic acid and L-Cystathionine to make a final concentration of 1% formic acid and 10 μM L-Cystathionine. Background and signal strength was determined by addition (or non-addition) of a serial dilution of NMN to a pre-quenched enzyme and cofactor mix.
A mass spectrometry-based assay was used to measure the NAMPT reaction product (NMN) and the internal control (L-Cystathionine). NMN and L-Cystathionine were detected using the services of Biocius Lifesciences with the RapidFire system. In short, the NMN and L-Cystathionine are bound to a graphitic carbon cartridge in 0.1% formic acid, eluted in 30% acetonitrile buffer, and injected into a Sciex 4000 mass spectrometer. The components of the sample were ionized with electrospray ionization and the positive ions were detected. […] The fragments are quantified and the analyzed by the following method.
First the NMN signal is normalized to the L-Cystathionine signal by dividing the NMN signal by the L-Cystathionine signal for each well. The signal from the background wells are averaged and subtracted from the test plates. […] IC50s are Determined Using Excel and this Formula.

Row | SMILES | IC50 (A2780 cells; SRB) | IC50 (NAMPT; NAMPT enzymatic reaction) | IC50 (NAMPT; NAMPT enzymatic assay) | IC50 (A2780 cells; SRB assay)
1 | CCCCc1ccc(S(=O)(=O)c2ccc(CNC(=O)c3cnc4nccn4c3)cc2)cc1 | 10.7 nM | 5.3 nM | – | –
2 | Cc1cc(Cl)cc(S(=O)(=O)c2ccc(CNC(=O)c3cnc4[nH]ncc4c3)cc2)c1 | 2.6 nM | 6.2 nM | – | –
3 | CCOc1cccc(S(=O)(=O)c2ccc(CNC(=O)c3cc4cnccc4[nH]3)cc2)c1F | 11.6 nM | 31.2 nM | – | –
4 | CCOCc1ccc(S(=O)(=O)c2ccc(CNC(=O)c3cnc4nccn4c3)cc2)cc1 | 5.2 nM | – | 2.7 nM | –
5 | O=C(NCc1ccc(S(=O)(=O)c2ccccc2Cl)cc1)c1ccc2nccn2c1 [N-({4-[(2-chlorobenzene)sulfonyl]phenyl}methyl)imidazo[1,2-a]pyridine-6-carboxamide] | 56.7 nM | 24.1 nM | – | –
6 | O=C(NCc1ccc(S(=O)(=O)N2CCCCC2)cc1)c1cccnc1 [N-{[4-(piperidine-1-sulfonyl)phenyl]methyl}pyridine-3-carboxamide] | – | 39 nM | – | 640 nM
7 | Cn1ncc2cc(S(=O)(=O)c3ccc(CNC(=O)c4cnc5nccn5c4)cc3)ccc21 [N-{[4-(1-methyl-1H-indazole-5-sulfonyl)phenyl]methyl}imidazo[1,2-a]pyrimidine-6-carboxamide] | 4.9 nM | – | 1.7 nM | –
8 | CC(C)COc1ccc(S(=O)(=O)c2ccc(CNC(=O)c3ccc4nccn4c3)cc2)cc1 | 2.7 nM | – | 2.2 nM | –
9 | O=C(NCc1ccc(S(=O)(=O)c2cccc(F)c2)cc1)c1cnc2[nH]ncc2c1 | 25.3 nM | 33.9 nM | – | –
10 | O=C(NCc1ccc(S(=O)(=O)c2ccc(C(F)(F)F)c(Cl)c2)cc1)c1cc2ccncc2o1 | 6.2 nM | – | 7.9 nM | –
11 | CC(C)COc1ccc(S(=O)(=O)c2ccc(CNC(=O)c3cc4ccncc4s3)cc2)cc1 | 10.3 nM | – | 4 nM | –
12 | Cc1cnc(S(=O)(=O)c2ccc(CNC(=O)c3ccc4nccn4c3)cc2)n1C [N-{[4-(1,5-dimethyl-1H-imidazole-2-sulfonyl)phenyl]methyl}imidazo[1,2-a]pyridine-6-carboxamide] | 73.1 nM | – | 30.9 nM | –
13 | COc1ccc(S(=O)(=O)c2ccc(CNC(=O)c3cc4cnccc4[nH]3)cc2)c(C(F)(F)F)c1 | 13 nM | – | 80.4 nM | –
14 | COc1ccc(S(=O)(=O)c2ccc(CNC(=O)c3cnc4[nH]ncc4c3)cc2)cc1 | 14.3 nM | 20.9 nM | – | –
15 | COc1c(F)cccc1S(=O)(=O)c1ccc(CNC(=O)c2cc3cnccc3[nH]2)cc1 | 6.3 nM | 32.4 nM | – | –
16 | Cc1cc(F)ccc1S(=O)(=O)c1ccc(CNC(=O)c2cnc3[nH]ncc3c2)cc1 [N-({4-[(4-fluoro-2-methylbenzene)sulfonyl]phenyl}methyl)-1H-pyrazolo[3,4-b]pyridine-5-carboxamide] | 98.3 nM | 78.8 nM | – | –
17 | O=C(NCc1ccc(S(=O)(=O)c2cc(Cl)cc(Cl)c2)cc1)c1cc2ccncc2s1 [N-({4-[(3,5-dichlorobenzene)sulfonyl]phenyl}methyl)thieno[2,3-c]pyridine-2-carboxamide] | – | 6 nM | – | 0.7 nM
18 | CCOc1cccc(S(=O)(=O)c2ccc(CNC(=O)c3ccc4nccn4c3)cc2)c1F | 6.2 nM | 5 nM | – | –
19 | COc1ccc(C(C)(C)C)cc1S(=O)(=O)c1ccc(CNC(=O)c2cc3ccncc3o2)cc1 | 10.1 nM | – | 21.8 nM | –
20 | CCCOc1cccc(S(=O)(=O)c2ccc(CNC(=O)c3cc4ccncc4o3)cc2)c1 | 25.2 nM | 10.1 nM | – | –

Row | SMILES | IC50 (A2780 cells; SRB) | IC50 (NAMPT; NAMPT enzymatic reaction) | IC50 (NAMPT; NAMPT enzymatic assay) | IC50 (A2780 cells; SRB assay)
21 | COc1ccc(Cl)c(S(=O)(=O)c2ccc(CNC(=O)c3cc4cnccc4[nH]3)cc2)c1 | 9.7 nM | 11 nM | – | –
22 | COc1cc(Cl)ccc1S(=O)(=O)c1ccc(CNC(=O)c2cc3ccncc3o2)cc1 | 24.8 nM | 8.5 nM | – | –
23 | CCOc1ccc(S(=O)(=O)c2ccc(CNC(=O)c3ccc4nccn4c3)cc2)cc1 | 2.9 nM | 4.5 nM | – | –
24 | Cc1cc(F)ccc1S(=O)(=O)c1ccc(CNC(=O)c2cnc3nccn3c2)cc1 | 100 to 1000 nM | 13 nM | – | –
25 | Cc1ccncc1S(=O)(=O)c1ccc(CNC(=O)c2cc3cnccc3[nH]2)cc1 [N-{[4-(4-methylpyridine-3-sulfonyl)phenyl]methyl}-1H-pyrrolo[3,2-c]pyridine-2-carboxamide] | 25.8 nM | – | 260 nM | –
26 | Cn1ncc2cccc(S(=O)(=O)c3ccc(CNC(=O)c4cc5ccncc5s4)cc3)c21 [N-{[4-(1-methyl-1H-indazole-7-sulfonyl)phenyl]methyl}thieno[2,3-c]pyridine-2-carboxamide] | 10.4 nM | – | 4.5 nM | –
27 | CCCOc1ccc(Cl)cc1S(=O)(=O)c1ccc(CNC(=O)c2cc3cnccc3[nH]2)cc1 | 1.2 nM | 7.5 nM | – | –
28 | CC(C)COc1cc(F)cc(S(=O)(=O)c2ccc(CNC(=O)c3cnc4[nH]ncc4c3)cc2)c1 [N-[(4-{[3-fluoro-5-(2-methylpropoxy)benzene]sulfonyl}phenyl)methyl]-1H-pyrazolo[3,4-b]pyridine-5-carboxamide] | 9.49 nM | – | 11.2 nM | –
29 | CCNC(=O)c1ccc(S(=O)(=O)c2ccc(CNC(=O)c3cc4cnccc4[nH]3)cc2)cc1 | 14.1 nM | – | 14.5 nM | –
30 | COc1cccc(S(=O)(=O)c2ccc(CNC(=O)c3cnc4[nH]ncc4c3)cc2)c1F | 56.3 nM | 8.6 nM | – | –
31 | O=C(NCc1ccc(S(=O)(=O)c2cc(Cl)cc(CO)c2)cc1)c1ccc2nccn2c1 | 1.4 nM | – | 5.8 nM | –
32 | Cc1cccc(S(=O)(=O)c2ccc(CNC(=O)c3cc4ccncc4s3)cc2)c1C [N-({4-[(2,3-dimethylbenzene)sulfonyl]phenyl}methyl)thieno[2,3-c]pyridine-2-carboxamide] | 4.4 nM | – | 11 nM | –
33 | CC(C)c1ccc(S(=O)(=O)c2ccc(CNC(=O)c3ccc4nccn4c3)cc2)cc1 [N-[(4-{[4-(propan-2-yl)benzene]sulfonyl}phenyl)methyl]imidazo[1,2-a]pyridine-6-carboxamide] | 6.66 nM | – | 14.6 nM | –
34 | O=C(NCc1ccc(S(=O)(=O)c2cnc3n2CCCCC3)cc1)c1cnc2nccn2c1 [N-[(4-{5H,6H,7H,8H,9H-imidazo[1,2-a]azepine-3-sulfonyl}phenyl)methyl]imidazo[1,2-a]pyrimidine-6-carboxamide] | 28.7 nM | – | 1.1 nM | –
35 | CC(=O)c1cccc(S(=O)(=O)c2ccc(CNC(=O)c3cnc4nccn4c3)cc2)c1 | 10.5 nM | 1.8 nM | – | –
36 | O=C(NCc1ccc(S(=O)(=O)c2cc(F)ccc2F)cc1)c1cnc2[nH]ncc2c1 | 392 nM | 100 to 1000 nM | – | –
37 | Cn1ncc2cc(S(=O)(=O)c3ccc(CNC(=O)c4ccc5nccn5c4)cc3)ccc21 [N-{[4-(1-methyl-1H-indazole-5-sulfonyl)phenyl]methyl}imidazo[1,2-a]pyridine-6-carboxamide] | 1.6 nM | – | 4 nM | –
38 | CCc1ccccc1S(=O)(=O)c1ccc(CNC(=O)c2cnc3[nH]ncc3c2)cc1 [N-({4-[(2-ethylbenzene)sulfonyl]phenyl}methyl)-1H-pyrazolo[3,4-b]pyridine-5-carboxamide] | 13 nM | 8.4 nM | – | –
39 | Cc1ccc(S(=O)(=O)c2ccc(CNC(=O)c3cnc4[nH]ncc4c3)cc2)cn1 [N-{[4-(6-methylpyridine-3-sulfonyl)phenyl]methyl}-1H-pyrazolo[3,4-b]pyridine-5-carboxamide] | 21.3 nM | – | 24.1 nM | –
40 | CCCOc1ccc(S(=O)(=O)c2ccc(CNC(=O)c3cc4cnccc4[nH]3)cc2)cc1 | 6.7 nM | 5.3 nM | – | –
